Experimental data: publication PMC3408433, “Selective Cytotoxicity of Amidinopiperidine Based Compounds Towards Burkitt’s Lymphoma Cells Involves Proteasome Inhibition” (PLoS ONE, 2012)

Columns and labels:
[1] = system: p65 and p50 translocation in Ramos cells; assay: Subcellular fractionation and Western blot of p65 and p50; assay type: cell-based, human; settings: 50 µM
Protocol: (§1) Ramos cells were seeded in 6-well culture plates at a concentration of 1×10^6 cells/mL and treated with the compound of interest or corresponding vehicle for 1 h, 2 h or 6 h. After the indicated time points, cells were harvested, washed in ice-cold PBS and lysed in modified RIPA buffer (50 mM Tris-HCl, pH 7.4, 150 mM NaCl, 1% NP−40, 0.25% Na-deoxycholate, 1 mM EDTA, 1 µg/mL aprotinin, 1 mM PMSF and 1× Halt Phosphatase inhibitor cocktail (Thermo Scientific, Pierce Biotechnology, IL, USA)). The lysates were sonicated, rocked on ice for 30 min and centrifuged at 13,000 rpm at 4°C for 15 min. Protein samples were electrophoresed in SDS-polyacrylamide gels and then transferred to nitrocellulose membranes. The primary antibodies used were against ubiquitin, phospho-IκBα, IκBα, p65 and caspase-3 (Cell Signaling, Danvers/MA, USA), and p105/p50 (Santa Cruz Biotechnology, Inc., Santa Cruz/CA, USA), and ß-actin (Sigma-Aldrich). Following incubation with the primary antibody, membranes were washed six times and incubated for 1 h at room temperature with the corresponding dilution of the appropriate secondary antibody conjugated with horseradish peroxidase (Upstate, Temecula, CA, USA). The immunoreactivity of respective proteins of interest was determined by chemiluminescence using the SuperSignal West Femto substrate (Pierce, IL, USA), in accordance with the manufacturer's instructions. […]

Trypsin = biological target: Trypsin; set-up: method as in PMID 15497744, PMID 15544050, PMID 17484277; settings: amidolytic assay, chromogenic substrate; determined previously; cited from earlier work
Ramos cells [2] = assay: Annexin V/7-AAD assay; assay type: cell-based, human; settings: 16 h; for percentage of Annexin V positive cells: 50 µM, untreated 4% (Figure 5A)
Protocol: We used a PE Annexin V Apoptosis Detection Kit I (BD Biosciences) in accordance with the manufacturer’s instructions. Put briefly, Ramos cells were, following their treatment with the compound of interest, washed with cold PBS and resuspended in 1× binding buffer at a […] concentration. 100 µL of cell suspension was transferred to a 5 mL tube and 5 µL of both PE Annexin V and 7-AAD was added. The suspension was gently vortexed and incubated for 15 min at room temperature in the dark. Following this, 400 µL of 1× binding buffer was added and samples were analysed using a FACScalibur flow cytometer.

20S proteasome = biological target: T1, 20S proteasome (Homo sapiens, UniProt P28072+P28074+Q99436); assay: Rapid dilution assay (reversibility); assay type: biochemical
T1 construct: purchased Boston Biochem, Inc
Protocol: The enzyme-inhibitor complex was diluted 100-fold with the substrate of interest to a final volume of 200 µL, initiating the reaction. In the case of reversibility of the inhibitor the residual enzyme activity was expected to be around 90%.

[3] = system: Ramos Burkitt’s lymphoma cells; assay: Metabolic activity assay (MTS), Ramos; assay type: cell-based; settings: Homo sapiens, 24 h, read-out: IC50, inhibition of proliferation (metabolic activity)
Ramos cells [4] = assay: Cell cycle analysis (PI staining); assay type: cell-based, human; settings: for cell cycle distribution / percentage of cells in the sub-G1 phase (< 2n): 50 µM, 24 h; for percentage of cells in the sub-G1 phase (< 2n): PI staining; for number of hypodiploid cells: 48 h treatment, untreated 3.4%
Protocol: Ramos cells (5×10^5 cells) were treated with the compound of interest for 24 h. The cells were then washed with PBS and subjected to fixation with 80% ethanol at –20°C for 15 min. Fixated cells were pelleted by centrifugation and rehydrated in 5 mL of PBS for 15 min at room temperature. Collected cells were resuspended in 500 µL staining buffer (3 µM propidium iodide, 100 mM Tris, pH 7.4, 150 mM NaCl, 1 mM CaCl2, 0.5 mM MgCl2, 0.1% Nonident P-40). After 15 min of incubation, samples were analysed on a FACScalibur and evaluated using FlowJo software (BD bioscience, Franklin Lakes/NJ, USA).

[5] = system: p105 and IκBα in Ramos cells; assay: Western blot analysis of phospho-p105, p105, phospho-IκB and IκB; assay type: cell-based, human; settings: total level of both molecules remained the same
Protocol: as §1

[6] = system: ubiquitinated proteins in Ramos cells; assay: Western blot analysis of ubiquitinated proteins; assay type: cell-based, human; settings: 6 h treatment
Protocol: as §1

[7] = presence of zVADfmk 50 µM (Figure 5D)

N=C(N)N1CCC(CN(NS(=O)(=O)c2ccc3ccccc3c2)C(=O)N2CCCCC2)CC1 [Compound 15]
translocation of p65 and p50 from the cytoplasm into the nucleus [1]: no translocation of p65 and p50 | Ki (Trypsin): 39 µM | percentage of Annexin V positive cells (Ramos cells [2]): 57% | reversibility of proteasome inhibition (20S proteasome): reversibly inhibit | IC50 [3]: 18 µM | cell cycle distribution (Ramos cells [4]): accumulation of cells in the S phase | percentage of cells in the sub-G1 phase (< 2n) (Ramos cells [4]): 8.7% | number of hypodiploid cells (Ramos cells [4]): 42.5% | levels of p105 and IκBα (phosphorylated forms) [5]: accumulation of the phosphorylated forms of p105 and IκBα

N=C(N)N1CCC(CN(NS(=O)(=O)c2ccc3ccccc3c2)C(=O)N2CCCCCC2)CC1 [Compound 16]
Ki (Trypsin): 66 µM | percentage of Annexin V positive cells (Ramos cells [2]): 39% | Annexin V positive cells (lower right quadrant) (Ramos cells [2]; absence of zVADfmk (Figure 5D)): 30% | living cells (lower left quadrant, Annexin V/7-AAD) (Ramos cells [2]; absence of zVADfmk (Figure 5D)): 62% | Annexin V positive cells (lower right quadrant) (Ramos cells [2]; [7]): 11% | living cells (lower left quadrant, Annexin V/7-AAD) (Ramos cells [2]; [7]): 82% | polyubiquitinated proteins [6]: increased amount of polyubiquitinated proteins | reversibility of proteasome inhibition (20S proteasome): reversibly inhibit | IC50 [3]: 22 µM | cell cycle distribution (Ramos cells [4]): accumulation of cells in the S phase | percentage of cells in the sub-G1 phase (< 2n) (Ramos cells [4]): 22.7% | number of hypodiploid cells (Ramos cells [4]): 51.1%
